Several values for one entry are separate records, joined by “and”; a condition that tells them apart may be missing. Equal entries are not always repeated.
Test: NHP health screening: serum chemistry
Assay type: in vivo, rhesus macaques (Macaca mulatta)
[1] = Mid-dosing bleed, treated animals, individual values
[2] = Post-dosing bleed, treated animals, individual values
[3] = Post-dosing bleed, Mean of treated F animals
[4] = Post-dosing bleed, individual treated animals
[5] = drug-treatment phase, returned to pre-study values by the final blood draw

Method: Under light-anesthesia/sedation, peripheral blood samples were collected from each animal prior to treatment and at 7 time points following. Blood analysis (CBC and serum chemistry assays) and physical exams to evaluate the health of the study animals were performed on each animal prior to the beginning of the study and also at three time points during the treatment protocol (see Supplementary data).

With `Cc1c(C(=O)N[C@H](C(=O)OCC2CCOCC2)C(C)C)ccc2c1B(O)OC2` [AN15368] the Glob [1] was 3.3 G/Dl and 3.1 G/Dl and 2.8 G/Dl and 3.4 G/Dl and 2.9 G/Dl and 4.1 G/Dl and 3.8 G/Dl and 2.7 G/Dl and 2.5 G/Dl and 3 G/Dl and 3.5 G/Dl and 3.2 G/Dl, the Gluc [1] was 69 Mg/Dl and 72 Mg/Dl and 58 Mg/Dl and 65 Mg/Dl and 66 Mg/Dl and 56 Mg/Dl and 73 Mg/Dl and 55 Mg/Dl and 63 Mg/Dl and 70 Mg/Dl and 48 Mg/Dl and 54 Mg/Dl and 79 Mg/Dl and 68 Mg/Dl and 53 Mg/Dl and the K [1] was 3.9 Meq/L and 3.6 Meq/L and 3.3 Meq/L and 3.4 Meq/L and 3.5 Meq/L and 4.3 Meq/L and 3.8 Meq/L and 3.7 Meq/L. For the same molecule, the Ldh [1] was 473 Iu/L and 139 Iu/L and 164 Iu/L and 148 Iu/L and 134 Iu/L and 214 Iu/L and 259 Iu/L and 376 Iu/L and 250 Iu/L and 266 Iu/L and 183 Iu/L and 238 Iu/L and 449 Iu/L and 154 Iu/L and 213 Iu/L and 475 Iu/L and 156 Iu/L and 198 Iu/L and 375 Iu/L, the Na [1] was 148 Meq/L and 150 Meq/L and 147 Meq/L and 144 Meq/L and 149 Meq/L and 146 Meq/L and 152 Meq/L and the Osmo [1] was 284 Mosm/Kg and 289 Mosm/Kg and 281 Mosm/Kg and 283 Mosm/Kg and 288 Mosm/Kg and 276 Mosm/Kg and 286 Mosm/Kg and 280 Mosm/Kg and 287 Mosm/Kg and 293 Mosm/Kg and 285 Mosm/Kg and 282 Mosm/Kg. The Phos [1] was 3.3 Mg/Dl and 3.8 Mg/Dl and 2 Mg/Dl and 2.4 Mg/Dl and 1 Mg/Dl and 2.2 Mg/Dl and 3.9 Mg/Dl and 2.5 Mg/Dl and 3.6 Mg/Dl and 3.1 Mg/Dl and 1.8 Mg/Dl and 4.8 Mg/Dl and 3.2 Mg/Dl, the Tbil [1] was 0.18 Mg/Dl and 0.17 Mg/Dl and 0.14 Mg/Dl and 0.2 Mg/Dl and 0.16 Mg/Dl and 0.19 Mg/Dl and 0.15 Mg/Dl and 0.13 Mg/Dl and the Tco2 [1] was 26 Meq/L and 28 Meq/L and 27 Meq/L and 25 Meq/L and 30 Meq/L and 24 Meq/L. For the same molecule, the Tibc [1] was 376 µg/dL and 358 µg/dL and 410 µg/dL and 408 µg/dL and 348 µg/dL and 343 µg/dL and 359 µg/dL and 373 µg/dL and 383 µg/dL and 429 µg/dL and 377 µg/dL and 326 µg/dL and 340 µg/dL and 412 µg/dL and 337 µg/dL and 324 µg/dL and 325 µg/dL, the Tp [1] was 7.2 G/Dl and 6.7 G/Dl and 7.3 G/Dl and 7.5 G/Dl and 6.4 G/Dl and 7 G/Dl and 6.9 G/Dl and 6.5 G/Dl and 6.8 G/Dl and 6.6 G/Dl and the Trig [1] was 99 Mg/Dl and 148 Mg/Dl and 81 Mg/Dl and 85 Mg/Dl and 108 Mg/Dl and 72 Mg/Dl and 32 Mg/Dl and 141 Mg/Dl and 65 Mg/Dl and 82 Mg/Dl and 79 Mg/Dl and 102 Mg/Dl and 29 Mg/Dl and 76 Mg/Dl and 70 Mg/Dl and 62 Mg/Dl and 66 Mg/Dl and 95 Mg/Dl. The Agap [2] was 16 Meq/L and 14 Meq/L, the Alb [2] was 3.9 G/Dl and 3.7 G/Dl and the Alp [2] was 111 Iu/L and 100 Iu/L and 77 Iu/L. The Alt [2] was 52 Iu/L and 63 Iu/L and 59 Iu/L, the Ast [2] was 26 Iu/L and 34 Iu/L and 32 Iu/L and the Bun [2] was 17 Mg/Dl and 14 Mg/Dl. For the same molecule, the Ca [2] was 9.5 Mg/Dl and 8.9 Mg/Dl, the Chol [2] was 187 mg/dL and 193 mg/dL and 141 mg/dL and the Ck [2] was 260 Iu/L and 337 Iu/L and 328 Iu/L. The Cl [2] was 107 Meq/L and 111 Meq/L, the Crea [2] was 0.58 Mg/Dl and 0.78 Mg/Dl and 0.68 Mg/Dl and the Fe [2] was 135 µg/dL and 99 µg/dL and 93 µg/dL. For the same molecule, the Ggt [2] was 41 Iu/L and 54 Iu/L and 38 Iu/L, the Glob [2] was 3.3 G/Dl and 3.1 G/Dl and 2.9 G/Dl and the Gluc [2] was 63 Mg/Dl and 84 Mg/Dl and 51 Mg/Dl. For the same molecule, the K [2] was 3.5 Meq/L and 3.4 Meq/L, the Ldh [2] was 217 Iu/L and 509 Iu/L and 322 Iu/L and the Na [2] was 147 Meq/L and 146 Meq/L and 148 Meq/L. The Osmo [2] was 283 Mosm/Kg and 281 Mosm/Kg and 284 Mosm/Kg, the Phos [2] was 4.6 Mg/Dl and 3.2 Mg/Dl and 2.1 Mg/Dl and the Tbil [2] was 0.19 Mg/Dl and 0.14 Mg/Dl and 0.12 Mg/Dl. The Tco2 [2] was 28 Meq/L and 26 Meq/L, the Tibc [2] was 357 µg/dL and 333 µg/dL and 388 µg/dL and the Tp [2] was 7.2 G/Dl and 6.8 G/Dl and 6.6 G/Dl. For the same molecule, the Trig [2] was 64 Mg/Dl and 152 Mg/Dl and 111 Mg/Dl, the Agap [3] was 15.0556 Meq/L and the Alb [3] was 3.833 G/Dl. It also gave an Alp [3] of 103.5 Iu/L, an Alt [3] of 52.5556 Iu/L and an Ast [3] of 30.8889 Iu/L. For the same molecule, the Bun [3] was 14.9444 Mg/Dl, the Ca [3] was 9.256 Mg/Dl and the Chol [3] was 143.944 mg/dL. The Ck [3] was 504.722 Iu/L, the Cl [3] was 109.722 Meq/L and the Crea [3] was 0.695 Mg/Dl. The Fe [3] was 115.333 µg/dL, the Ggt [3] was 47 Iu/L and the Glob [3] was 3.178 G/Dl. The Gluc [3] was 64.6667 Mg/Dl, the K [3] was 3.617 Meq/L and the Ldh [3] was 322.722 Iu/L. For the same molecule, the Na [3] was 147.667 Meq/L, the Osmo [3] was 283.5 Mosm/Kg and the Phos [3] was 3.244 Mg/Dl. The Tbil [3] was 0.1383 Mg/Dl, the Tco2 [3] was 26.6111 Meq/L and the Tibc [3] was 363.444 µg/dL. For the same molecule, the Tp [3] was 7.006 G/Dl, the Trig [3] was 77.7222 Mg/Dl and the Agap [4] was 14 Meq/L and 13 Meq/L and 17 Meq/L and 15 Meq/L and 19 Meq/L. The Alb [4] was 3.7 G/Dl and 3.8 G/Dl and 3.6 G/Dl and 3.3 G/Dl and 3.5 G/Dl and 4.1 G/Dl and 4.2 G/Dl and 4 G/Dl and 3.4 G/Dl and 3.9 G/Dl, the Alp [4] was 195 Iu/L and 100 Iu/L and 87 Iu/L and 122 Iu/L and 132 Iu/L and 143 Iu/L and 66 Iu/L and 83 Iu/L and 80 Iu/L and 105 Iu/L and 138 Iu/L and 102 Iu/L and 69 Iu/L and 79 Iu/L and the Alt [4] was 97 Iu/L and 39 Iu/L and 41 Iu/L and 87 Iu/L and 35 Iu/L and 91 Iu/L and 28 Iu/L and 31 Iu/L and 48 Iu/L and 71 Iu/L and 43 Iu/L and 46 Iu/L and 64 Iu/L. The Ast [4] was 40 Iu/L and 30 Iu/L and 31 Iu/L and 28 Iu/L and 27 Iu/L and 20 Iu/L and 42 Iu/L and 18 Iu/L and 26 Iu/L and 32 Iu/L and 45 Iu/L and 35 Iu/L, the Bun [4] was 12 Mg/Dl and 16 Mg/Dl and 17 Mg/Dl and 10 Mg/Dl and 18 Mg/Dl and 15 Mg/Dl and 13 Mg/Dl and 20 Mg/Dl and 11 Mg/Dl and 14 Mg/Dl and the Ca [4] was 9.1 Mg/Dl and 8.8 Mg/Dl and 9 Mg/Dl and 9.3 Mg/Dl and 9.8 Mg/Dl and 9.2 Mg/Dl and 9.6 Mg/Dl and 9.4 Mg/Dl and 9.5 Mg/Dl and 8.7 Mg/Dl. For the same molecule, the Chol [4] was 121 mg/dL and 130 mg/dL and 133 mg/dL and 163 mg/dL and 147 mg/dL and 123 mg/dL and 150 mg/dL and 157 mg/dL and 141 mg/dL and 125 mg/dL and 129 mg/dL and 155 mg/dL and 160 mg/dL and 115 mg/dL and 127 mg/dL, the Ck [4] was 628 Iu/L and 657 Iu/L and 306 Iu/L and 255 Iu/L and 667 Iu/L and 292 Iu/L and 656 Iu/L and 625 Iu/L and 240 Iu/L and 479 Iu/L and 309 Iu/L and 783 Iu/L and 341 Iu/L and 1583 Iu/L and 339 Iu/L and 291 Iu/L and the Cl [4] was 109 Meq/L and 111 Meq/L and 108 Meq/L and 113 Meq/L and 110 Meq/L and 107 Meq/L. The Crea [4] was 0.68 Mg/Dl and 0.84 Mg/Dl and 0.9 Mg/Dl and 0.6 Mg/Dl and 0.64 Mg/Dl and 0.7 Mg/Dl and 0.75 Mg/Dl and 0.83 Mg/Dl and 0.62 Mg/Dl and 0.65 Mg/Dl and 0.78 Mg/Dl and 0.66 Mg/Dl and 0.53 Mg/Dl, the Fe [4] was 123 µg/dL and 100 µg/dL and 104 µg/dL and 102 µg/dL and 72 µg/dL and 129 µg/dL and 105 µg/dL and 154 µg/dL and 174 µg/dL and 67 µg/dL and 109 µg/dL and 144 µg/dL and 159 µg/dL and 136 µg/dL and the Ggt [4] was 47 Iu/L and 54 Iu/L and 63 Iu/L and 53 Iu/L and 51 Iu/L and 30 Iu/L and 52 Iu/L and 29 Iu/L and 39 Iu/L and 31 Iu/L and 89 Iu/L and 35 Iu/L and 42 Iu/L. For the same molecule, the Glob [4] was 3.3 G/Dl and 2.9 G/Dl and 4 G/Dl and 3.5 G/Dl and 3 G/Dl and 3.2 G/Dl and 2.7 G/Dl and 2.8 G/Dl and 3.4 G/Dl, the Gluc [4] was 67 Mg/Dl and 57 Mg/Dl and 69 Mg/Dl and 65 Mg/Dl and 74 Mg/Dl and 62 Mg/Dl and 70 Mg/Dl and 48 Mg/Dl and 50 Mg/Dl and 58 Mg/Dl and 66 Mg/Dl and 75 Mg/Dl and 86 Mg/Dl and 44 Mg/Dl and 51 Mg/Dl and the K [4] was 3.6 Meq/L and 3.5 Meq/L and 3.7 Meq/L and 4.4 Meq/L and 3.4 Meq/L and 3.8 Meq/L. For the same molecule, the Ldh [4] was 356 Iu/L and 197 Iu/L and 294 Iu/L and 209 Iu/L and 260 Iu/L and 107 Iu/L and 225 Iu/L and 392 Iu/L and 204 Iu/L and 300 Iu/L and 485 Iu/L and 796 Iu/L and 178 Iu/L and 365 Iu/L and 393 Iu/L and 524 Iu/L, the Na [4] was 147 Meq/L and 150 Meq/L and 148 Meq/L and 151 Meq/L and 146 Meq/L and 149 Meq/L and 145 Meq/L and the Osmo [4] was 281 Mosm/Kg and 288 Mosm/Kg and 283 Mosm/Kg and 282 Mosm/Kg and 284 Mosm/Kg and 291 Mosm/Kg and 280 Mosm/Kg and 286 Mosm/Kg and 279 Mosm/Kg and 287 Mosm/Kg. The Phos [4] was 2.4 Mg/Dl and 1.8 Mg/Dl and 1.9 Mg/Dl and 2.7 Mg/Dl and 3.6 Mg/Dl and 3.8 Mg/Dl and 4.7 Mg/Dl and 2.9 Mg/Dl and 3.7 Mg/Dl and 5.2 Mg/Dl and 2.1 Mg/Dl and 4.6 Mg/Dl and 4.3 Mg/Dl and 4 Mg/Dl, the Tbil [4] was 0.15 Mg/Dl and 0.13 Mg/Dl and 0.1 Mg/Dl and 0.14 Mg/Dl and 0.17 Mg/Dl and 0.12 Mg/Dl and 0.11 Mg/Dl and 0.16 Mg/Dl and the Tco2 [4] was 28 Meq/L and 30 Meq/L and 26 Meq/L and 25 Meq/L and 24 Meq/L and 29 Meq/L and 23 Meq/L. For the same molecule, the Tibc [4] was 379 µg/dL and 363 µg/dL and 332 µg/dL and 367 µg/dL and 386 µg/dL and 356 µg/dL and 359 µg/dL and 419 µg/dL and 437 µg/dL and 354 µg/dL and 325 µg/dL and 353 µg/dL and 316 µg/dL and 309 µg/dL, the Tp [4] was 7 G/Dl and 6.7 G/Dl and 7.6 G/Dl and 6.8 G/Dl and 7.5 G/Dl and 7.1 G/Dl and 6.9 G/Dl and 7.2 G/Dl and the Trig [4] was 78 Mg/Dl and 58 Mg/Dl and 56 Mg/Dl and 74 Mg/Dl and 63 Mg/Dl and 59 Mg/Dl and 42 Mg/Dl and 61 Mg/Dl and 158 Mg/Dl and 51 Mg/Dl and 44 Mg/Dl and 113 Mg/Dl and 93 Mg/Dl and 100 Mg/Dl. The “alanine aminotransferase (ALT), mean value” [5] was “mildly elevated” and the “alkaline phosphatase (ALP), mean value” [5] was “mildly elevated”.

Source: PMC9519446, “Discovery of an Orally Active Benzoxaborole Prodrug Effective in the Treatment of Chagas Disease in Non-human Primates” (Nature microbiology, 2022)
